US20040086901A1, “Database for analyzing gene function and method of analyzing gene function by dspa” (priority 2000, published 2004)
Non-standard residues stand in square brackets, D forms with d. Residues, ends and D or L forms follow the SMILES beside them. Nle = CCCC[C@H](N)C(=O)O

How the values were obtained:
Assay type in all cases: cell-based, mouse
[1] = system: NIH3T3 cells overexpressing calpastatin; assay: MTT cell viability, calpastatin overexpressing cells vs parental line; settings: calpastatin high-expressing cells / parental cell line, 3 to 4 days
Protocol: (§1) With regard to the function-known genes, the genes shown in the left column of Table 2 were used. With regard to the drugs, those shown in Table 1 were dissolved in DMSO to an extent of 100-fold of the maximum concentration for the search of the drugs and used. With regard to the cells, incubated NIH3T3 or ras-NIH3T3 cells were used.
(§2) Full-length cDNA of each function-known genes was incorporated into an expression vector (pRc-CMV, etc.) and transfected into NIH3T3 cells by a common method. Transformed cells were isolated using the resistance to G-418 as an index and the expression of the transfected gene in each cell was investigated by Western blotting method to select a highly expressing line.
(§3) Cell viabilities were measured according to the following procedures.
(§4) 1) From the 2nd to the 11th rows of a 96-well plate were filled with DMEM (50 μl). The 12th row was filled with 100 μl of DMEM.
(§5) 2) The 1st row was filled with 98 μl of DMEM.
(§6) 3) Drugs (2 μl each) were added into the 1st row.
(§7) 4) Continuous double-dilution was conducted from the 1st to the 9th rows. Fifty μl were taken out from the 9th row and discarded. The plate was preserved in a CO2 incubator.
(§8) 5) Cells (each high-expressing cells and the parental cell line) were detached from the medium using a trypsin solution, suspended in 10% CS-DMEM and transferred to a test tube and cell numbers (cell/ml) were counted.
(§9) 6) The cells were diluted to a concentration of 1×10^5 cells/ml, and 50 μl of the cell suspension were added to the 1st to the 11th rows of the plate followed by gently stirring.
(§10) 7) The plate was transferred to the CO2 incubator and incubated for 3 to 4 days.
(§11) 8) MTT (5 mg/ml in PBS) (10 μl) was added to the 1st to the 12th rows of the plate and incubated in the CO2 incubator at 37° C. for 4 hours.
(§12) 9) A reaction stop solution (0.04N HCl in isopropanol) (150 μl) was added followed by mixing well and being allowed to stand at room temperature for about 2 hours.
(§13) 10) Coloration of formazan which was a metabolite of the MTT dye was measured using a microplate reader. The measurement wavelength was 574 nm and the reference wavelength was 655 nm. The 10th and the 11th rows of the plate were 100% controls and the 12th row was a 0% control.
(§14) As an index for the sensitivity of highly gene-expressing cells and the parental cell line to various drugs, each of the IC40 values thereof was specified and ratios of the IC40 values were calculated. FIG. 2 and FIG. 3 are the examples where ratios of IC40 values were calculated from a curve showing the dependency on the concentration of the chemical versus the viability. After that, logarithmic values of ratios of IC40 values were calculated from each gene.

[2] = system: NIH3T3 cells overexpressing STAT1; assay: MTT cell viability, STAT1 overexpressing cells vs parental line; settings: STAT1 high-expressing cells / parental cell line, 3 to 4 days
Protocol: as §1, §2, §3, §4, §5, §6, §7, §8, §9, §10, §11, §12, §13
(§15) As an index for the sensitivity of highly gene-expressing cells and the parental cell line to various drugs, each of the IC40 values thereof was specified and ratios of the IC40 values were calculated. […] After that, logarithmic values of ratios of IC40 values were calculated from each gene.

[3] = system: NIH3T3 cells overexpressing Regucalcin; assay: MTT cell viability, Regucalcin overexpressing cells vs parental line; settings: Regucalcin high-expressing cells / parental cell line, 3 to 4 days
Protocol: as §1, §2, §3, §4, §5, §6, §7, §8, §9, §10, §11, §12, §13, §14

[4] = system: NIH3T3 cells overexpressing m-calpain; assay: MTT cell viability, m-calpain overexpressing cells vs parental line; settings: m-calpain high-expressing cells / parental cell line, 3 to 4 days
Protocol: as §1, §2, §3, §4, §5, §6, §7, §8, §9, §10, §11, §12, §13, §15

[5] = system: NIH3T3 cells overexpressing cystatin E; assay: MTT cell viability, cystatin E overexpressing cells vs parental line; settings: cystatin E high-expressing cells / parental cell line, 3 to 4 days
Protocol: as §1, §2, §3, §4, §5, §6, §7, §8, §9, §10, §11, §12, §13, §14

[6] = system: NIH3T3 cells overexpressing RhoA; assay: MTT cell viability, RhoA overexpressing cells vs parental line; settings: RhoA high-expressing cells / parental cell line, 3 to 4 days
Protocol: as §1, §2, §3, §4, §5, §6, §7, §8, §9, §10, §11, §12, §13, §14

[7] = system: NIH3T3 cells overexpressing caspase-1; assay: MTT cell viability, caspase-1 overexpressing cells vs parental line; settings: caspase-1 high-expressing cells / parental cell line, 3 to 4 days
Protocol: as §1, §2, §3, §4, §5, §6, §7, §8, §9, §10, §11, §12, §13, §15

[8] = system: NIH3T3 cells overexpressing HNF1; assay: MTT cell viability, HNF1 overexpressing cells vs parental line; settings: HNF1 high-expressing cells / parental cell line, 3 to 4 days
Protocol: as §1, §2, §3, §4, §5, §6, §7, §8, §9, §10, §11, §12, §13, §15

[9] = system: NIH3T3 cells overexpressing CaMKIIa; assay: MTT cell viability, CaMKIIa overexpressing cells vs parental line; settings: CaMKIIa high-expressing cells / parental cell line, 3 to 4 days
Protocol: as §1, §2, §3, §4, §5, §6, §7, §8, §9, §10, §11, §12, §13, §15

[10] = system: NIH3T3 cells overexpressing CBP8; assay: MTT cell viability, CBP8 overexpressing cells vs parental line; settings: CBP8 high-expressing cells / parental cell line, 3 to 4 days
Protocol: as §1, §2, §3, §4, §5, §6, §7, §8, §9, §10, §11, §12, §13, §14

[11] = system: NIH3T3 cells overexpressing cAMP-PK-CS; assay: MTT cell viability, cAMP-PK-CS overexpressing cells vs parental line; settings: cAMP-PK-CS high-expressing cells / parental cell line, 3 to 4 days
Protocol: as §1, §2, §3, §4, §5, §6, §7, §8, §9, §10, §11, §12, §13, §15

[12] = system: NIH3T3 cells overexpressing v-src; assay: MTT cell viability, v-src overexpressing cells vs parental line; settings: v-src high-expressing cells / parental cell line, 3 to 4 days
Protocol: as §1, §2, §3, §4, §5, §6, §7, §8, §9, §10, §11, §12, §13, §14

[13] = system: NIH3T3 cells overexpressing cystatin alpha; assay: MTT cell viability, cystatin alpha overexpressing cells vs parental line; settings: cystatin alpha high-expressing cells / parental cell line, 3 to 4 days
Protocol: as §1, §2, §3, §4, §5, §6, §7, §8, §9, §10, §11, §12, §13, §14

[14] = system: NIH3T3 cells overexpressing caspase-2; assay: MTT cell viability, caspase-2 overexpressing cells vs parental line; settings: caspase-2 high-expressing cells / parental cell line, 3 to 4 days
Protocol: as §1, §2, §3, §4, §5, §6, §7, §8, §9, §10, §11, §12, §13, §14

[15] = system: NIH3T3 cells overexpressing TK; assay: MTT cell viability, TK overexpressing cells vs parental line; settings: TK high-expressing cells / parental cell line, 3 to 4 days
Protocol: as §1, §2, §3, §4, §5, §6, §7, §8, §9, §10, §11, §12, §13, §14

[16] = system: NIH3T3 cells overexpressing N-ras; assay: MTT cell viability, N-ras overexpressing cells vs parental line; settings: N-ras high-expressing cells / parental cell line, 3 to 4 days
Protocol: as §1, §2, §3, §4, §5, §6, §7, §8, §9, §10, §11, §12, §13, §14

[17] = system: NIH3T3 cells overexpressing JNK-DN; assay: MTT cell viability, JNK-DN overexpressing cells vs parental line; settings: JNK-DN high-expressing cells / parental cell line, 3 to 4 days
Protocol: as §1, §2, §3, §4, §5, §6, §7, §8, §9, §10, §11, §12, §13, §14

[18] = system: NIH3T3 cells overexpressing Ki-ras; assay: MTT cell viability, Ki-ras overexpressing cells vs parental line; settings: Ki-ras high-expressing cells / parental cell line, 3 to 4 days
Protocol: as §1, §2, §3, §4, §5, §6, §7, §8, §9, §10, §11, §12, §13, §14

[19] = system: NIH3T3 cells overexpressing PDGF-R; assay: MTT cell viability, PDGF-R overexpressing cells vs parental line; settings: PDGF-R high-expressing cells / parental cell line, 3 to 4 days
Protocol: as §1, §2, §3, §4, §5, §6, §7, §8, §9, §10, §11, §12, §13, §14

[20] = system: NIH3T3 cells overexpressing PKCalpha-KN; assay: MTT cell viability, PKCalpha-KN overexpressing cells vs parental line; settings: 3 to 4 days
Protocol: as §1, §2, §3, §4, §5, §6, §7, §8, §9, §10, §11, §12, §13, §15

[21] = PKCalpha-KN (first of two lines) high-expressing cells / parental cell line
[22] = PKCalpha-KN (second of two lines) high-expressing cells / parental cell line

| SMILES | logarithmic value of ratio of IC40 values [1] | logarithmic value of ratio of IC40 values [2] | logarithmic value of ratio of IC40 values [3] | logarithmic value of ratio of IC40 values [4] | logarithmic value of ratio of IC40 values [5] | logarithmic value of ratio of IC40 values [6] | logarithmic value of ratio of IC40 values [7] | logarithmic value of ratio of IC40 values [8] | logarithmic value of ratio of IC40 values [9] | logarithmic value of ratio of IC40 values [10] | logarithmic value of ratio of IC40 values [11] | logarithmic value of ratio of IC40 values [12] | logarithmic value of ratio of IC40 values [14] | logarithmic value of ratio of IC40 values [15] | logarithmic value of ratio of IC40 values [16] | logarithmic value of ratio of IC40 values [17] | logarithmic value of ratio of IC40 values [18] | logarithmic value of ratio of IC40 values [19] | logarithmic value of ratio of IC40 values [20, 21] | logarithmic value of ratio of IC40 values [20, 22] | also measured |
| --- | --- | --- | --- | --- | --- | --- | --- | --- | --- | --- | --- | --- | --- | --- | --- | --- | --- | --- | --- | --- | --- |
| CNc1ccc2oc(C[C@H]3O[C@@]4(CC[C@H]3C)O[C@H]([C@H](C)C(=O)c3ccc[nH]3)[C@H](C)C[C@H]4C)nc2c1C(=O)O [A23187] | −0.12 | 0.31 | 0.03 | 0.26 | 0.22 | 0.26 | −0.22 | 0.35 | 0.00 | 0.22 | −0.08 | −0.19 | 0.48 | 0.00 | 0.20 | −0.08 | 0.06 | 0.31 | 0.22 | −0.05 | logarithmic value of ratio of IC40 values [13]: 0.26 |
| CCCC[C@@H](C=O)NC(=O)[C@H](CC(C)C)NC(=O)[C@H](CC(C)C)NC(C)=O [ALLN] (Ac-Leu-Leu-[Nle]-aldehyde) | 0.10 | 0.17 | 0.00 | 0.00 | 0.19 | 0.00 | −0.04 | 0.16 | 0.00 | 0.11 | 0.20 | 0.10 | −0.04 | 0.00 | 0.17 | −0.24 | 0.11 | 0.22 | 0.11 | −0.01 | logarithmic value of ratio of IC40 values [13]: 0.07 |
| CC(=O)OCOC(=O)CN(CC(=O)OCOC(C)=O)c1ccccc1OCCOc1ccccc1N(CC(=O)OCOC(C)=O)CC(=O)OCOC(C)=O [BAPTA-AM] | 0 | 0.10 | −0.39 | 0.00 | −0.02 | 0.00 | 0.60 | 0.20 | −0.12 | 0.00 | −0.10 | −0.22 | 0.23 | 0.00 | 0.00 | 0.06 | −0.15 | 0.29 | 0.43 | −0.42 | logarithmic value of ratio of IC40 values [13]: 0.34 |
| C[C@@H]1C[C@@H]([C@H](O)CC2CC(=O)NC(=O)C2)C(=O)[C@@H](C)C1 [CHX, cycloheximide] | 0.31 | 0.00 | 0.08 | 0.22 | 0.00 | 0.14 | −0.05 | 0.38 | 0.04 | 0.00 | 0.23 | −0.32 | 0.74 | −0.13 | −0.42 | 0.00 | −0.43 | 0.51 | 0.30 | 0.29 | logarithmic value of ratio of IC40 values [13]: 0.34 |
| CC(C)(C)C(=O)Oc1ccc(S(=O)(=O)Nc2ccccc2C(=O)NCC(=O)O)cc1 [compound 5046] | −0.1 | 0.05 | −0.38 | −0.04 | 0.36 | 0.11 | 0.40 | 0.05 | – | 0.12 | – | 0.51 | 0.51 | −0.24 | 0.23 | −0.09 | 0.51 | 0.36 | 0.10 | −0.05 | – |
